Assay results from ChEMBL document CHEMBL4325872, “Identification of Selective Dual ROCK1 and ROCK2 Inhibitors Using Structure-Based Drug Design” (J Med Chem, 2018).
Values after ≈ are worked out from the molar mass of the structure shown.

What was measured:
in vitro = conditions: PAMPA

## COc1cccc([C@@H](C)NC(=O)c2ccc(-c3ccncn3)cc2N2CCC[C@@H](CN)C2)c1
physchem
  solubility: 51.2 µM (≈ 22.8 µg/mL)
In vitro
  Papp: 25 nm/s

## COc1cccc([C@@H](C)NC(=O)c2ccc(-c3ccncn3)cc2N2CC[C@@H](CN)C2)c1
physchem
  solubility: 63.9 µM (≈ 27.6 µg/mL)
In vitro
  Papp: 14 nm/s

## COc1cccc([C@@H](C)NC(=O)c2ccc(-c3ccncn3)cc2N2CCC[C@H](CN)C2)c1
physchem
  solubility: 65.5 µM (≈ 29.2 µg/mL)
In vitro
  Papp: 26 nm/s
